Where a SMILES comes first, the peptide text is derived from it. [ ]: non-standard residue; d: D form. The star is where a group is joined. 2Nal = N[C@@H](Cc1ccc2ccccc2c1)C(=O)O; Cha = N[C@@H](CC1CCCCC1)C(=O)O; Tle = CC(C)(C)[C@H](N)C(=O)O; Boc = CC(C)(C)OC(=O)*; tBu = CC(C)(C)*
Experiments:
Assay type in all cases: biochemical, Empedobacter brevis
[1] = tested on: peptide-forming enzyme (Mono S fraction enzyme); assay: Enzyme substrate specificity (1)-(10), (13), (14): peptide production; design: key: +: those peptides for which production was confirmed but which were unable to be quantified due to the absence of a standard; a trace amount; details: 0.1 unit enzyme, 25° C.
Method: (§1) Ester specificity was examined in the case of using L-amino acid ester for the carboxy component. 2 μl of the same enzyme fraction as used in Example 5 was added to 100 μl of 100 mM borate buffer (pH 9.0) containing the carboxy components indicated in Table 4 at 100 mM, 200 mM L-glutamine and 10 mM EDTA, and allowed to react at 25° C. for 2 hours. HCl represents hydrochloride in Table 4.
(§2) Peptide production was examined in the case of using L-alanine methyl ester for the carboxy component and using various L-amino acids for the amine component.
(§3) Peptide production was examined in the case of using various types of L-amino acid methyl esters for the carboxy component and using L-glutamine for the amine component. 2 μl of the same enzyme fraction as used in Example 5 was added to 100 μl of 100 mM borate buffer (pH 9.0) containing the L-amino acid methyl ester hydrochloride salts (AA-OMe.HCl) shown in Table 6 at 100 mM, 150 mM L-glutamine and 10 mM EDTA, and allowed to react at 25° C. for 3 hours. […] Furthermore, Tween-80 was added to the reaction system to a final concentration of 0.1% in the case of using L-Trp-OMe and L-Tyr-OMe.
(§4) Peptide production was examined in the case of using various L-amino acid methyl esters for the carboxy component and various L-amino acids for the amine component. 2 μl of the same enzyme fraction as used in Example 5 was added to 100 μl of 100 mM borate buffer (pH 9.0) containing the L-amino acid methyl ester hydrochloride salts (AA-OMe.HCl) shown in Table 7 at 100 mM, the L-amino acids shown in Table 7 at 150 mM and 10 mM EDTA, and allowed to react at 25° C. for 3 hours. The “tr” indicates a trace amount. Furthermore, Tween-80 was added to the reaction system to a final concentration of 0.1% in the case of using L-Trp-OMe.
Peptide production was examined in the case of using the L or D forms of various amino acid methyl esters for the carboxy component, and the L or D forms of various amino acids for the amine component. 2 μl of the same enzyme fraction as used in Example 5 was added to 100 μl of 100 mM borate buffer (pH 9.0) containing the various amino acid methyl ester hydrochloride salts (AA-OMe HCl) shown in Table 8 at 100 mM, the various amino acids shown in Table 8 at 150 mM and 10 mM EDTA, and allowed to react at 25° C. for 3 hours. The “tr” indicates a trace amount.
Peptide production was examined using various L-amino acid amides for the carboxy component, and various L-amino acids for the amine component. 2 μl of the same enzyme fraction as that used in Example 5 was added to 100 μl of 100 mM borate buffer (pH 9.0) containing the L-amino acid amide hydrochloride salt (M-NH2.HCl) shown in Table 9 at 100 mM, the L-amino acids shown in Table 9 at 150 mM and 10 mM EDTA, and allowed to react at 25° C. for 3 hours.
Peptide production was examined in the case of using various L-alanine methyl esters for the carboxy component and C-protected L-amino acids for the amine component. 2 μl of the same enzyme fraction as used in Example 5 was added to 100 μl of 100 mM borate buffer (pH 9.0) containing the L-alanine methyl ester hydrochloride hydrochloride salt (Ala-OMe.HCl) shown in Table 10 at 100 mM, the L-amino acid amide hydrochloride salts shown in Table 10 at 150 mM and 10 mM EDTA, and allowed to react at 25° C. for 3 hours.
Peptide production was examined in the case of using various amino acid methyl esters for the carboxy component and methylamine for the amine component. 2 μl of the same enzyme fraction as used in Example 5 was added to 100 μl of 100 mM borate buffer (pH 9.0) containing the amino acid methyl ester hydrochloride salt (M-OMe.HCl) shown in Table 11 at 100 mM, the methylamine shown in Table 11 at 150 mM and 10 mM EDTA, and allowed to react at 25° C. for 3 hours.
Peptide production was examined in the case of using […] for the carboxy component or β-amino acid for the amine component.

[2] = tested on: peptide-forming enzyme (Mono S fraction enzyme); assay: as above; design: key: +: those for which production was confirmed but which were unable to be quantified due to the absence of a standard; a trace amount; details: 0.1 unit enzyme, 25° C.
Method: as §1, §2, §3, §4
Peptide production was examined in the case of using the L or D forms of various amino acid methyl esters for the carboxy component, and the L or D forms of various amino acids for the amine component. […]

[3] = tested on: peptide-forming enzyme (Mono S fraction enzyme); assay: Enzyme inhibitors: effects on the production of L-alanyl-L-glutamine; details: for Relative activity of L-Ala-L-Gln production: inhibitor at 10 mM, borate buffer pH 9.0, 25° C., 5 minutes, 100 = absence of enzyme inhibitor
[4] = tested on: peptide-forming enzyme (Mono S fraction enzyme); assay: Production of L-alanyl-L-glutamine from L-alanine methyl ester and L-glutamine with enzyme fraction; details: 100 mM L-alanine methyl ester hydrochloride, 200 mM L-glutamine, 10 mM EDTA, pH 9.0, 18° C.; FIG. 3
Method: On the other hand, there was hardly any production of L-Ala-L-Gln observed in an enzyme-non-added lot, and the […] was only about 0.07 mM after reacting for 120 minutes.

[5] = tested on: peptide-forming enzyme (Mono S fraction enzyme); assay: Enzyme substrate specificity (1)-(10), (13), (14): peptide production; details: L-amino acid ester 100 mM, peptide (amine component) 150 mM, pH 9.0, 25° C., 3 hours
Summary of the method: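 Mono S enzyme fraction in 100 mM borate buffer (pH 9.0) with 10 mM EDTA and 100 mM carboxy component (amino acid methyl esters or amides); amine components (L-glutamine, amino acids, amino acid amides or methylamine) at 150 mM, or 200 mM L-glutamine with varied esters. Reactions ran at 25° C for 2–3 hours; 0.1% Tween-80 added for Trp/Tyr-OMe.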

[6] = carboxy component 100 mM, amine component 150 mM, reaction time 3 hr
[7] = carboxy component 40 mM, amine component 40 mM, reaction time 3 hr
[8] = carboxy component 100 mM, amine component 150 mM, reaction time 2 hr

`CC(C)(C)[C@H](N)C(=O)N[C@@H](CCC(N)=O)C(=O)O` [H-t-Leu-H-Gln-OH] (H-[Tle]-Gln-OH) was tested, and the Produced peptide [1, 6] was “tr”.

`N[C@@H](CC1CCCCC1)C(=O)N[C@@H](Cc1ccccc1)C(=O)O` [H-CHA-Phe-OH] (H-[Cha]-Phe-OH) was tested, and the Produced peptide [2, 7] was “+”.

In the case of `N=C(N)Nc1ccc(C(=O)Oc2ccc([N+](=O)[O-])cc2)cc1` [p-Nitrophenyl-p′-guanidino benzoate, p-nitrophenyl-p′-guanidinobenzoate], the “Relative activity of L-Ala-L-Gln production” value (from here on “Relative activity”) [3] is reported as 0.1% and the “Inhibition of the enzyme (in words)” value ([3]; serine enzyme inhibitors at 10 mM) is reported as “inhibited”.

With `NC(=O)CC[C@H](NC(=O)[C@@H](N)Cc1ccc(F)cc1)C(=O)O` [H-p-F-Phe-H-Gln-OH] the Produced peptide [1, 6] was “tr”.

`CCN1C(=O)C=CC1=O` [N-Ethyl maleimide] was tested, and the “Relative activity” value [3] was 110%.

For `c1cnc2c(c1)ccc1cccnc12` [o-Phenanthroline, o-phenanthroline], the “Relative activity” value [3] was 96%.

With L-Ala-L-Ala-L-Gln the “Peptide formed, enzyme-added lot” value [4] was 1.3 mM and the Produced peptide [5] was 15.2 mM.

With `NC(=O)CC[C@H](NC(=O)[C@@H](N)Cc1ccc(Cl)cc1)C(=O)O` [H-Cl-F-Phe-H-Gln-OH] the Produced peptide ([1]; carboxy component 25 mM, amine component 50 mM, reaction time 3 hr) was “tr”.

For `C[C@H](N)C(=O)N[C@@H](Cc1ccc2ccccc2c1)C(=O)O` [H-Ala-2-Nal-OH] (H-Ala-[2Nal]-OH), the Produced peptide ([2]; carboxy component 20 mM, amine component 20 mM, reaction time 3 hr) was “+”.

With `NC(=O)CC[C@H](NC(=O)[C@@H](N)Cc1ccc2ccccc2c1)C(=O)O` [H-2-Nal-H-Gln-OH] (H-[2Nal]-Gln-OH) the Produced peptide [1, 7] was “tr”.

`CC(C)(C)OC(=O)NCCCC[C@H](N)C(=O)N[C@@H](CCC(N)=O)C(=O)O` [H-Lys(Boc)-Gln-OH] (H-Lys(Boc)-Gln-OH) was tested, and the Produced peptide [2, 8] was “+”.

`CC(C)(C)OC[C@H](N)C(=O)N[C@@H](CCC(N)=O)C(=O)O` [H-Ser(tBu)-Gln-OH] (H-Ser(tBu)-Gln-OH) was tested, and the Produced peptide [1, 8] was “tr”.

`O=C(O)CN(CCN(CC(=O)O)CC(=O)O)CC(=O)O` [EDTA, ethylene diamine tetraacetic acid] was tested, and the “Relative activity” value [3] was 96%.

With `CN[C@@H](C)C(=O)N[C@@H](Cc1ccccc1)C(=O)O` [H-N-Me-Ala-Phe-OH] the Produced peptide [1, 6] was “tr”.

Source: patent US20040204577A1, “Novel peptide-forming enzyme gene” (Ajinomoto Co., Inc., priority 2003, published 2004)
